Test results from ChEMBL document CHEMBL1201862, “PubChem BioAssay data set” (2004).
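Test compounds were applied to cells in 96-well plates for 48 hours at 5 doses. GI50 = concentration required for 50% inhibition of growth.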 Activity calls are given as the source filed them. Rule as the data show it: active = GI50 up to about 1.1 µM and inactive = higher.

Tests used:
Experiment in all cases: NCI anticancer screen, dose series, 48 h
SW-620 = tested on: SW-620
OVCAR-3 = tested on: OVCAR-3
Malme-3M = tested on: Malme-3M
SF-295 = tested on: SF-295
SK-MEL-2 = tested on: SK-MEL-2
HOP-62 = tested on: HOP-62
NCI-H522 = tested on: NCI-H522
HT-29 = tested on: HT-29
COLO 205 = tested on: COLO 205
SK-OV-3 = tested on: SK-OV-3
NCI/ADR-RES = tested on: NCI/ADR-RES
MDA-MB-231 = tested on: MDA-MB-231
SF-539 = tested on: SF-539
TK-10 = tested on: TK-10
MDA-N = tested on: MDA-N
HCC 2998 = tested on: HCC 2998
UO-31 = tested on: UO-31
NCI-H460 = tested on: NCI-H460
A549 = tested on: A549
HL-60 = tested on: HL-60
DU-145 = tested on: DU-145
K562 = tested on: K562
M14 = tested on: M14
PC-3 = tested on: PC-3
SN12C = tested on: SN12C
UACC-62 = tested on: UACC-62
U-251 = tested on: U-251
T47D = tested on: T47D
OVCAR-5 = tested on: OVCAR-5
SK-MEL-28 = tested on: SK-MEL-28
NCI-H23 = tested on: NCI-H23
SNB-75 = tested on: SNB-75
BT-549 = tested on: BT-549
HCT-15 = tested on: HCT-15
NCI-H226 = tested on: NCI-H226
ACHN = tested on: ACHN
IGROV-1 = tested on: IGROV-1
HOP-92 = tested on: HOP-92
A498 = tested on: A498
EKVX = tested on: EKVX
RXF 393 = tested on: RXF 393
UACC-257 = tested on: UACC-257
OVCAR-4 = tested on: OVCAR-4
Hs-578T = tested on: Hs-578T
CCRF-CEM = tested on: CCRF-CEM
OVCAR-8 = tested on: OVCAR-8
KM12 = tested on: KM12
CAKI-1 = tested on: CAKI-1
MOLT-4 = tested on: MOLT-4
SR = tested on: SR
RPMI-8226 = tested on: RPMI-8226
MCF7 = tested on: MCF7
LOX IMVI = tested on: LOX IMVI
HCT-116 = tested on: HCT-116
SK-MEL-5 = tested on: SK-MEL-5
SF-268 = tested on: SF-268
MDA-MB-435 = tested on: MDA-MB-435
SNB-19 = tested on: SNB-19
786-0 = tested on: 786-0

## CC(C)(C)C1=CC(=C2C=Cc3ccccc3O2)C=C(C(C)(C)C)C1=O
SW-620
  GI50: 2.84 µM (inactive)
OVCAR-3
  GI50: 2.23 µM (inactive)
Malme-3M
  GI50: 3.81 µM (inactive)
SF-295
  GI50: 5.33 µM (inactive)
SK-MEL-2
  GI50: 2.13 µM (inactive)
HOP-62
  GI50: 6.04 µM (inactive)
NCI-H522
  GI50: 3.53 µM (inactive)
HT-29
  GI50: 3.76 µM (inactive)
COLO 205
  GI50: 2.18 µM (inactive)
SK-OV-3
  GI50: 13.6 µM (inactive)
NCI/ADR-RES
  GI50: 3.81 µM (inactive)
MDA-MB-231
  GI50: 3.41 µM (inactive)
SF-539
  GI50: 7.05 µM (inactive)
TK-10
  GI50: 3.87 µM (inactive)
MDA-N
  GI50: 2.31 µM (inactive)
HCC 2998
  GI50: 1.61 µM (inactive)
UO-31
  GI50: 4.68 µM (inactive)
NCI-H460
  GI50: 1.6 µM (inactive)
A549
  GI50: 4.16 µM (inactive)
HL-60
  GI50: 1.9 µM (inactive)
DU-145
  GI50: 4.71 µM (inactive)
K562
  GI50: 3.94 µM (inactive)
M14
  GI50: 3.55 µM (inactive)
PC-3
  GI50: 4.09 µM (inactive)
SN12C
  GI50: 3.21 µM (inactive)
UACC-62
  GI50: 2.56 µM (inactive)
U-251
  GI50: 2.46 µM (inactive)
T47D
  GI50: 1.77 µM (inactive)
OVCAR-5
  GI50: 6.7 µM (inactive)
SK-MEL-28
  GI50: 6.25 µM (inactive)
NCI-H23
  GI50: 4.56 µM (inactive)
SNB-75
  GI50: 5.55 µM (inactive)
BT-549
  GI50: 6.59 µM (inactive)
HCT-15
  GI50: 3.13 µM
NCI-H226
  GI50: 8.79 µM (inactive)
ACHN
  GI50: 5.51 µM (inactive)
IGROV-1
  GI50: 6.53 µM (inactive)
HOP-92
  GI50: 13.9 µM (inactive)
A498
  GI50: 4.39 µM (inactive)
EKVX
  GI50: 6.59 µM (inactive)
RXF 393
  GI50: 2.25 µM (inactive)
UACC-257
  GI50: 3.61 µM (inactive)
OVCAR-4
  GI50: 2.41 µM (inactive)
Hs-578T
  GI50: 7 µM (inactive)
CCRF-CEM
  GI50: 2.09 µM (inactive)
OVCAR-8
  GI50: 6.37 µM (inactive)
KM12
  GI50: 2.47 µM (inactive)
CAKI-1
  GI50: 3.07 µM (inactive)
MOLT-4
  GI50: 1.73 µM (inactive)
SR
  GI50: 1.85 µM (inactive)
RPMI-8226
  GI50: 2.15 µM (inactive)
MCF7
  GI50: 1.86 µM (inactive)
LOX IMVI
  GI50: 3.06 µM (inactive)
HCT-116
  GI50: 2.76 µM (inactive)
SK-MEL-5
  GI50: 3.81 µM (inactive)
SF-268
  GI50: 5.55 µM (inactive)
MDA-MB-435
  GI50: 1.75 µM (inactive)
SNB-19
  GI50: 9.16 µM (inactive)
786-0
  GI50: 2.67 µM (inactive)

## N#CC(c1ccccc1)N(CCc1ccccc1)C(=O)Oc1ccccc1 (configuration not stated)
SW-620
  GI50: > 100 µM (inactive)
OVCAR-3
  GI50: > 100 µM (inactive)
Malme-3M
  GI50: > 100 µM (inactive)
SF-295
  GI50: > 100 µM (inactive)
SK-MEL-2
  GI50: > 100 µM (inactive)
HOP-62
  GI50: 82 µM (inactive)
NCI-H522
  GI50: > 100 µM (inactive)
HT-29
  GI50: > 100 µM (inactive)
COLO 205
  GI50: > 100 µM (inactive)
SK-OV-3
  GI50: > 100 µM (inactive)
NCI/ADR-RES
  GI50: > 100 µM (inactive)
MDA-MB-231
  GI50: > 100 µM (inactive)
SF-539
  GI50: > 100 µM (inactive)
TK-10
  GI50: > 100 µM (inactive)
MDA-N
  GI50: > 100 µM (inactive)
HCC 2998
  GI50: > 100 µM (inactive)
UO-31
  GI50: > 100 µM (inactive)
A549
  GI50: > 100 µM (inactive)
HL-60
  GI50: > 100 µM (inactive)
DU-145
  GI50: > 100 µM (inactive)
K562
  GI50: > 100 µM (inactive)
M14
  GI50: > 100 µM (inactive)
PC-3
  GI50: > 100 µM (inactive)
SN12C
  GI50: > 100 µM (inactive)
UACC-62
  GI50: > 100 µM (inactive)
U-251
  GI50: > 100 µM (inactive)
T47D
  GI50: > 100 µM (inactive)
OVCAR-5
  GI50: > 100 µM (inactive)
SK-MEL-28
  GI50: > 100 µM (inactive)
NCI-H23
  GI50: > 100 µM (inactive)
SNB-75
  GI50: 25.6 µM (inactive)
BT-549
  GI50: > 100 µM (inactive)
HCT-15
  GI50: > 100 µM
NCI-H226
  GI50: 34.1 µM (inactive)
ACHN
  GI50: > 100 µM (inactive)
IGROV-1
  GI50: > 100 µM (inactive)
HOP-92
  GI50: 29.5 µM (inactive)
A498
  GI50: > 100 µM (inactive)
EKVX
  GI50: > 100 µM (inactive)
RXF 393
  GI50: 46.9 µM (inactive)
UACC-257
  GI50: > 100 µM (inactive)
OVCAR-4
  GI50: > 100 µM (inactive)
Hs-578T
  GI50: 44.8 µM (inactive)
CCRF-CEM
  GI50: > 100 µM (inactive)
OVCAR-8
  GI50: > 100 µM (inactive)
KM12
  GI50: > 100 µM (inactive)
CAKI-1
  GI50: > 100 µM (inactive)
MOLT-4
  GI50: > 100 µM (inactive)
SR
  GI50: > 100 µM (inactive)
RPMI-8226
  GI50: > 100 µM (inactive)
MCF7
  GI50: > 100 µM (inactive)
LOX IMVI
  GI50: > 100 µM (inactive)
HCT-116
  GI50: > 100 µM (inactive)
SK-MEL-5
  GI50: > 100 µM (inactive)
SF-268
  GI50: > 100 µM (inactive)
MDA-MB-435
  GI50: > 100 µM (inactive)
SNB-19
  GI50: 53 µM (inactive)
786-0
  GI50: > 100 µM (inactive)
